Laboratory results published in ChEMBL document CHEMBL1146941, “Synthesis of pyrazinamide Mannich bases and its antitubercular properties” (2006).
In brackets after ≈: the same amount, converted by molar mass.

Key:
[1] = tested on: Mycobacterium tuberculosis; test: Antimycobacterial activity against Mycobacterium tuberculosis; assay type: functional
Vero [2] = test: Cytotoxicity against Vero cells by MTT assay; assay type: functional; conditions: Chlorocebus sabaeus
Vero [3] = test: Selectivity index (CC50/MIC90); assay type: functional
[4] = tested on: Mycobacterium tuberculosis; test: Activity against Mycobacterium tuberculosis ATCC 35801 in lungs of CD1 mice at 100 mg/kg; assay type: functional, Lung
[5] = tested on: Mycobacterium tuberculosis; test: Activity against Mycobacterium tuberculosis ATCC 35801 in spleen of CD1 mice at 100 mg/kg; assay type: functional

**Q.** With `O=C(NCN1CCN(c2ccccn2)CC1)c1cnccn1` as the compound, how does the MIC90 [1] read?
**A.** 12.5 µg/mL (≈ 41.9 µM)

**Q.** Which CC50 (Vero [2]) does the source give for `O=C(NCN1CCN(c2ccc(C(F)(F)F)cc2)CC1)c1cnccn1` here?
**A.** > 62.5 µg/mL

**Q.** What about the MIC90 [1] of the same compound?
**A.** 0.78 µg/mL (≈ 2.13 µM)

**Q.** And the Selectivity index (Vero [3])?
**A.** >80

**Q.** For `CN1CCN(CNC(=O)c2cnccn2)CC1`, which MIC90 [1] is on record?
**A.** 12.5 µg/mL (≈ 53.1 µM)

**Q.** And the Log10 cfu [4]?
**A.** 6.02

**Q.** And the Log10 cfu [5]?
**A.** 7.18

**Q.** For `O=C(NCN1CCN(Cc2ccccc2)CC1)c1cnccn1`, which MIC90 [1] is on record?
**A.** 6.25 µg/mL (≈ 20.1 µM)

**Q.** How did the MIC90 [1] turn out when `O=C(NCN1CCN(c2cccc(Cl)c2)CC1)c1cnccn1` was run?
**A.** 3.12 µg/mL (≈ 9.4 µM)

**Q.** `O=C(NCN1CCN(c2ccc(Cl)cc2)CC1)c1cnccn1` was tested. Which MIC90 [1] did it give?
**A.** 3.12 µg/mL (≈ 9.4 µM)

**Q.** Which MIC90 [1] does the source give for `COc1ccc(N2CCN(CNC(=O)c3cnccn3)CC2)cc1` here?
**A.** 12.5 µg/mL (≈ 38.2 µM)

**Q.** `O=C(NCN1CCN(c2ccc([N+](=O)[O-])cc2)CC1)c1cnccn1` was tested. Which MIC90 [1] did it give?
**A.** 6.25 µg/mL (≈ 18.3 µM)

**Q.** For `COc1cccc(N2CCN(CNC(=O)c3cnccn3)CC2)c1`, which MIC90 [1] is on record?
**A.** 12.5 µg/mL (≈ 38.2 µM)

**Q.** `O=C(NCN1CCN(c2ccccc2)CC1)c1cnccn1` was tested. Which MIC90 [1] did it give?
**A.** 6.25 µg/mL (≈ 21 µM)

**Q.** What does the source list for `CCn1cc(C(=O)O)c(=O)c2cc(F)c(N3CCN(CNC(=O)c4cnccn4)CC3)cc21`?
**A.** CC50 (Vero [2]): > 62.5 µg/mL; MIC90 [1]: 1.76 µg/mL (≈ 3.87 µM); Selectivity index (Vero [3]): >40

**Q.** With `O=C(NCN1CCN(c2cc3c(cc2F)c(=O)c(C(=O)O)cn3C2CC2)CC1)c1cnccn1` as the compound, how does the CC50 (Vero [2]) read?
**A.** > 62.5 µg/mL

**Q.** And the MIC90 [1]?
**A.** 3.13 µg/mL (≈ 6.71 µM)

**Q.** And the Selectivity index (Vero [3])?
**A.** >20

**Q.** What does the source list for `CCn1cc(C(=O)O)c(=O)c2cc(F)c(N3CCN(CNC(=O)c4cnccn4)CC3)c(F)c21`?
**A.** CC50 (Vero [2]): > 62.5 µg/mL; MIC90 [1]: 0.78 µg/mL (≈ 1.65 µM); Selectivity index (Vero [3]): >80

**Q.** `O=C(NCN1CCN(c2ncccn2)CC1)c1cnccn1` was tested. Which MIC90 [1] did it give?
**A.** > 12.5 µg/mL

**Q.** Which MIC90 [1] does the source give for `COc1ccccc1N1CCN(CNC(=O)c2cnccn2)CC1` here?
**A.** 12.5 µg/mL (≈ 38.2 µM)

**Q.** With `O=C(NCN1CCN(c2ccc(F)cc2)CC1)c1cnccn1` as the compound, how does the CC50 (Vero [2]) read?
**A.** > 62.5 µg/mL

**Q.** And the MIC90 [1]?
**A.** 1.76 µg/mL (≈ 5.58 µM)

**Q.** And the Selectivity index (Vero [3])?
**A.** >40

**Q.** With `COc1c(N2CCN(CNC(=O)c3cnccn3)C(C)C2)c(F)cc2c(=O)c(C(=O)O)cn(C3CC3)c12` (stereo unspecified) as the compound, how does the CC50 (Vero [2]) read?
**A.** > 62.5 µg/mL

**Q.** What about the Selectivity index (Vero [3]) of the same compound?
**A.** >160

**Q.** `NC(=O)c1cnccn1` [PYRAZINAMIDE] was tested. Which MIC90 [1] did it give?
**A.** 12.5 µg/mL (≈ 102 µM)
